Measurements published in ChEMBL document CHEMBL3886179, “Substituted 6, 7-dialkoxy-3-isoquinoline derivatives as inhibitors of phosphodiesterase 10 (PDE 10A)” (2015).
Several values for one entry are separate records, joined by “and”; a condition that tells them apart may be missing. Identical values can stand only once.

target: cAMP and cAMP-inhibited cGMP 3',5'-cyclic phosphodiesterase 10A (Homo sapiens, UniProt Q9Y233); assay: Diaxonhit Phosphodiesterase Assay: The phosphodiesterase assay was developed using the LANCE cAMP kit (PerkinElmer). The assay buffer contained HBSS with 5 mM HEPES, 0.1% BSA, and 1.5 mM MgCl2, pH 7.4. PDE10A (BPS Bioscience) was used at 200 pg/well (with a specific activity of 3200 pmole/min/ug with assay conditions: 10 mM Tris-HCl, pH 7.4, 10 mM MgCl2, 1 mM MnCl2, 200 uM cAMP, 2.5 kU 5' nucleotidase, 37° C., 20 min) and PDE4D3 (BPS Bioscience) was used at 100 pg/well (with a specific activity of 32713 pmole/min/ug with assay conditions: 10 mM Tris-HCl, pH 7.4, 10 mM MgCl2, 1 mM MnCl2, 200 uM cAMP, 2.5 kU 5' nucleotidase, 37° C., 20 min). The Biotin-cAMP tracer, supplied in 10 mmol/L Tris-HCl buffered (pH 8.0) salt solution with 1 mmol/L ethylenediaminetetraacetic acid (EDTA), 0.1% bovine serum albumin (BSA), and 0.05% sodium azide, is used at a dilution of 1/375. The assay detection mixture contained the LANCE Eu-W8044 labeled streptavidin 1/2250 (supplied in 50 mmol/L Tris-HCl buffer).
Sequence (Q9Y233 whole entry): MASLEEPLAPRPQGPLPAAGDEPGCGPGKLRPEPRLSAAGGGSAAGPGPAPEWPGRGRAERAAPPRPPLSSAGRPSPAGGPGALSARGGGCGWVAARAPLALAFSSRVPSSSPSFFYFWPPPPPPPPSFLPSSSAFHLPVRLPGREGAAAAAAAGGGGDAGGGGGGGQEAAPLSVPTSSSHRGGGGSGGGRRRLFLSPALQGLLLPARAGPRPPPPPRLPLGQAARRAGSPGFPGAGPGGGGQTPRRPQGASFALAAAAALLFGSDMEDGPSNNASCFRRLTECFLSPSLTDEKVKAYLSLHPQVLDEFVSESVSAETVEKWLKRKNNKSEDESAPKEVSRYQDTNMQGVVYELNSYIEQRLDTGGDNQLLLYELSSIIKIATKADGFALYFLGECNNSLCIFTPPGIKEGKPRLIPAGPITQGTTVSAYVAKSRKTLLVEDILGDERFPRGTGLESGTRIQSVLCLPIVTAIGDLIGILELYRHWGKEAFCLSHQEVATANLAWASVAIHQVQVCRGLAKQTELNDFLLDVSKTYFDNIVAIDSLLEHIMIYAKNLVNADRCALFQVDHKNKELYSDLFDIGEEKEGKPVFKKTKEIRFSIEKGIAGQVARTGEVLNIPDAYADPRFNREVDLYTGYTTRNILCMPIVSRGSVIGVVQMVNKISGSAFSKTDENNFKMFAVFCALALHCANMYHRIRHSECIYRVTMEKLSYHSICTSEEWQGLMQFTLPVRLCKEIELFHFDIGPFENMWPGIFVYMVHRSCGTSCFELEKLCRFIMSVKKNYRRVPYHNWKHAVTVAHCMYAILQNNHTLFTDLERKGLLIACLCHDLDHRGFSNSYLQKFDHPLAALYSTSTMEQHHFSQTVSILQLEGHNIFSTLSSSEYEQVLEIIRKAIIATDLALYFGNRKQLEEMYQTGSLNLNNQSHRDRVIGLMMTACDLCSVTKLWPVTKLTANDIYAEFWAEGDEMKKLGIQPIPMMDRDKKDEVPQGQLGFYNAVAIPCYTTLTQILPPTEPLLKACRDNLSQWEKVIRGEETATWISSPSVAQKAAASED

| SMILES | IC50 |
| --- | --- |
| COc1cc2c(Cc3cnc4ccccc4c3)cnc(C3CC3)c2cc1OC | 42 nM |
| COCc1ncc(Cc2ccc3cccc(NS(N)(=O)=O)c3n2)c2cc(OC)c(OC)cc12 | 0.18 nM |
| CCCc1ncc(Cc2ccc3cccc(OCC(N)=O)c3n2)c2cc(OC)c(OC)cc12 | 1.4 nM and 5.3 nM |
| CCCc1ncc(Cc2ccc3cccc(OCCO)c3n2)c2cc(OC)c(OC)cc12 | 6.6 nM |
| CCc1ncc(Cc2ccc3cccc(C#N)c3n2)c2cc(OC)c(OC)cc12 | 46 nM |
| COCc1ncc(Cc2ccc3cccc(N)c3n2)c2cc(OC)c(OC)cc12 | 8.6 nM |
| COCc1ncc(Cc2cnc3ccc(O)c(C(F)(F)F)c3c2)c2cc(OC)c(OC)cc12 | 4.5 nM |
| CCCc1ncc(Cc2cc3cc(OC)ccc3nc2NCC)c2cc(OC)c(OC)cc12 | 9.7 nM |
| CCc1ncc(Cc2cnc3ccc(NS(N)(=O)=O)cc3c2)c2cc(OC)c(OC)cc12 | 4.6 nM |
| CCCc1ncc(Cc2cnc3ccc(O)cc3c2)c2cc(OC)c(OC)cc12 | 9.4 nM |
| CCCc1ncc(Cc2cc3ccccc3cn2)c2cc(OC)c(OC)cc12 | 159 nM |
| CCCc1ncc(Cc2ccc3c(C(F)(F)F)ccc(O)c3n2)c2cc(OC)c(OC)cc12 | 491 nM |
| CCCc1ncc(Cc2ccc3cccc(OCc4nnn[nH]4)c3n2)c2cc(OC)c(OC)cc12 | 4.7 nM |
| CCc1ncc(Cc2cc3ccccc3cn2)c2cc(OC)c(OC)cc12 | 32 nM |
| CCc1ncc(Cc2ccc3cccc(NC(N)=O)c3n2)c2cc(OC)c(OC)cc12 | 58 nM |
| CCCc1ncc(Cc2ccc3cccc(NC(=O)COC(C)=O)c3n2)c2cc(OC)c(OC)cc12 | 204 nM |
| CCCc1ncc(Cc2ccc3cccc(OCC(=O)NC)c3n2)c2cc(OC)c(OC)cc12 | 51 nM |
| CCCc1ncc(Cc2ccc3cccc(NC(=O)CO)c3n2)c2cc(OC)c(OC)cc12 | 15 nM |
| CCCc1ncc(Cc2cnc3cc(C)ccc3c2)c2cc(OC)c(OC)cc12 | 5.2 nM |
| COc1cc2c(Cc3ccc4cccc(O)c4n3)cnc(C)c2cc1OC | 42 nM |

| SMILES | IC50 |
| --- | --- |
| CCc1ncc(Cc2cnc3ccc(N)cc3c2)c2cc(OC)c(OC)cc12 | 13 nM |
| CCCc1ncc(Cc2ccc3cccc(OCCNC(C)=O)c3n2)c2cc(OC)c(OC)cc12 | 58 nM |
| CCc1ncc(Cc2ccc3cccc(OCCO)c3n2)c2cc(OC)c(OC)cc12 | 192 nM |
| CCc1ncc(Cc2ccc3cccc(OC(C)=O)c3n2)c2cc(OC)c(OC)cc12 | 3110 nM |
| CCc1ncc(Cc2ccc3cccc(OCc4nnn[nH]4)c3n2)c2cc(OC)c(OC)cc12 | 31 nM |
| CCCc1ncc(Cc2coc3ccc(C)cc3c2=O)c2cc(OC)c(OC)cc12 | 31 nM |
| COc1cc2c(Cc3ccc4cccc(O)c4n3)cnc(C3CC3)c2cc1OC | 151 nM |
| COc1cc2cncc(Cc3coc4ccc(F)cc4c3=O)c2cc1OC | 38 nM |
| CCc1ncc(Cc2ccc3cccc(C(N)=O)c3n2)c2cc(OC)c(OC)cc12 | 77 nM |
| COc1cc2c(Cc3ccc4nc(C)ccc4c3)cnc(C3CCCCC3)c2cc1OC | 368 nM |
| CCCc1ncc(Cc2coc3ccc(F)cc3c2=O)c2cc(OC)c(OC)cc12 | 54 nM |
| COCc1ncc(Cc2ccc3cccc(OCCO)c3n2)c2cc(OC)c(OC)cc12 | 28 nM |
| CCCc1ncc(Cc2ccc3c(C(F)(F)F)ccc(OCC(N)=O)c3n2)c2cc(OC)c(OC)cc12 | 102 nM |
| CCCc1ncc(Cc2ccc3cccc(OCC(=O)O)c3n2)c2cc(OC)c(OC)cc12 | 4.9 nM |
| COCc1ncc(Cc2ccc3cccc(O)c3n2)c2cc(OC)c(OC)cc12 | 19 nM |
| COc1cc2c(Cc3ccc4cccc(OCC(N)=O)c4n3)cnc(C)c2cc1OC | 64 nM |
| COc1cc2c(Cc3cnc4cc(C)ccc4c3)cnc(C)c2cc1OC | 7.1 nM |
| COc1cc2cncc(Cc3coc4ccc(C)cc4c3=O)c2cc1OC | 5.1 nM |
| COc1cc2c(Cc3ccc4cccc(NS(N)(=O)=O)c4n3)cnc(C)c2cc1OC | 0.71 nM |
| CCc1ncc(Cc2ccc3cccc(OCCC(=O)O)c3n2)c2cc(OC)c(OC)cc12 | 5 nM |

| SMILES | IC50 |
| --- | --- |
| CCCc1ncc(Cc2ccc3cccc(NS(N)(=O)=O)c3n2)c2cc(OC)c(OC)cc12 | 0.82 nM |
| CCc1ncc(Cc2cnc3ccc(NS(C)(=O)=O)cc3c2)c2cc(OC)c(OC)cc12 | 16 nM |
| CCc1ncc(Cc2ccc3cccc(NS(C)(=O)=O)c3n2)c2cc(OC)c(OC)cc12 | 8.3 nM |
| CCCCc1ncc(Cc2cnc3cc(C)ccc3c2)c2cc(OC)c(OC)cc12 | 946 nM |
| COc1cc2c(Cc3ccc4cccc(OCC(N)=O)c4n3)cnc(C3CC3)c2cc1OC | 67 nM |
| CCOC(=O)COc1cccc2ccc(Cc3cnc(COC)c4cc(OC)c(OC)cc34)nc12 | 71 nM |
| CCCc1ncc(Cc2ccc3cccc(OCCC(=O)O)c3n2)c2cc(OC)c(OC)cc12 | 2.3 nM |
| CCc1ncc(Cc2cnc3ccc(N4CCCC4=O)cc3c2)c2cc(OC)c(OC)cc12 | 15 nM |
| CCc1ncc(Cc2ccc3cccc(NC(C)=O)c3n2)c2cc(OC)c(OC)cc12 | 17 nM |
| CCCc1ncc(Cc2ccc3cccc(OC(C)=O)c3n2)c2cc(OC)c(OC)cc12 | 109 nM |
| CCc1ncc(Cc2ccc3cccc(OCC(N)=O)c3n2)c2cc(OC)c(OC)cc12 | 20 nM |
| CCCc1ncc(Cc2ccc3c(c2)oc(=O)n3C)c2cc(OC)c(OC)cc12 | 4.4 nM |
| CCCCc1ncc(Cc2cnc3ccccc3c2)c2cc(OC)c(OC)cc12 | 92 nM |
| CCCc1ncc(Cc2cnc3ccc(O)c(C(F)(F)F)c3c2)c2cc(OC)c(OC)cc12 | 13 nM |
| CCc1ncc(Cc2ccc3cccc(NC(=O)C(N)=O)c3n2)c2cc(OC)c(OC)cc12 | 17 nM |
| CCc1ncc(Cc2ccc3cccc(NS(N)(=O)=O)c3n2)c2cc(OC)c(OC)cc12 | 0.53 nM |
| CCc1ncc(Cc2ccc3cccc(NS(=O)(=O)CC)c3n2)c2cc(OC)c(OC)cc12 | 3.5 nM |
| COCc1ncc(Cc2ccc3cccc(OCC(N)=O)c3n2)c2cc(OC)c(OC)cc12 | 21 nM |
| COc1cc2cnc(C)c(Cc3ccc4cccc(O)c4n3)c2cc1OC | 41 nM |
| CCCc1ncc(Cc2ccc3oc(=O)[nH]c3c2)c2cc(OC)c(OC)cc12 | 64 nM |

Second part, the compound after the results:

| IC50 | SMILES |
| --- | --- |
| 2.9 nM | COc1cc2cncc(Cc3cnc4ccc(O)cc4c3)c2cc1OC |
| 34 nM | COc1cc2cncc(Cc3ccc4[nH]c(=O)oc4c3)c2cc1OC |
| 20 nM | COc1cc2cncc(Cc3ccc4nc(-c5ccc(CO)cc5)oc4c3)c2cc1OC |
| 0.42 nM | COc1cc2cncc(Cc3ccc4cccc(NS(N)(=O)=O)c4n3)c2cc1OC |
| 2.5 nM | COc1cc2cncc(Cc3cnc4ccc(OCC(N)=O)cc4c3)c2cc1OC |
| 27 nM | COc1cc2cncc(Cc3coc4c(Cl)cc(Cl)cc4c3=O)c2cc1OC |
| 7.8 nM | CCn1c(=O)oc2ccc(Cc3cncc4cc(OC)c(OC)cc34)cc21 |
| 1.2 nM | COc1cc2cncc(Cc3cnc4cc(C)ccc4c3)c2cc1OC |
| 49 nM | COc1cc2cncc(Cc3ccc4oc(-c5ccc(N)cc5)nc4c3)c2cc1OC |
| 20 nM | COc1cc2cncc(Cc3coc4ccc(Cl)cc4c3=O)c2cc1OC |
| 30 nM | COc1cc2cncc(Cc3cc4ccccc4cn3)c2cc1OC |
| 19 nM | COc1cc2cncc(Cc3ccc4oc(-c5ccc(CO)cc5)nc4c3)c2cc1OC |
| 28 nM | COc1cc2cncc(Cc3ccc4oc(-c5cccc(CO)c5)nc4c3)c2cc1OC |
| 95 nM | COc1cc2cncc(Cc3ccc4oc(-c5ccccc5CO)nc4c3)c2cc1OC |
| 7.9 nM | COc1cc2cncc(Cc3cnc4ccc(OCC(=O)O)cc4c3)c2cc1OC |
| 31 nM | COc1cc2c(Cc3ccc4nc(C)ccc4c3)cnc(CC(C)C)c2cc1OC |
| 13 nM | COc1cc2cncc(Cc3ccc4cccc(N)c4n3)c2cc1OC |
| 3.6 nM | COc1cc2cncc(Cc3ccc4c(c3)oc(=O)n4C)c2cc1OC |
| 148 nM | COc1cc2cncc(Cc3ccc4oc(-c5ccc(C#N)cc5)nc4c3)c2cc1OC |
| 154 nM | CCCCc1ncc(Cc2ccc3nc(C)ccc3c2)c2cc(OC)c(OC)cc12 |
| 28 nM | CCc1ncc(Cc2cnc3ccc(O)cc3c2)c2cc(OC)c(OC)cc12 |
| 32 nM | CCn1c(=O)oc2cc(Cc3cncc4cc(OC)c(OC)cc34)ccc21 |
| 18 nM | COc1cc2c(Cc3cnc4ccc(O)cc4c3)cnc(C)c2cc1OC |
| 5.6 nM | COCc1ncc(Cc2cnc3ccc(O)cc3c2)c2cc(OC)c(OC)cc12 |
| 25 nM | COc1cc2c(Cc3ccc4nc(C)ccc4c3)cnc(C3CC3)c2cc1OC |
| 189 nM | COc1cc2cncc(Cc3ccc4oc(-c5ccccc5)nc4c3)c2cc1OC |
| 41 nM | COc1cc2cncc(Cc3coc4ccccc4c3=O)c2cc1OC |
